The target of one test is HDAC1 (Homo sapiens, UniProt Q13547). The test is classed as biochemical.
Test [1] deals with transformed and non-transformed human- and murine-derived cell lines. The note with it: transformed vs non-transformed human- and murine-derived cell lines; cited from earlier work.

Sequence of HDAC1 (Q13547 whole entry): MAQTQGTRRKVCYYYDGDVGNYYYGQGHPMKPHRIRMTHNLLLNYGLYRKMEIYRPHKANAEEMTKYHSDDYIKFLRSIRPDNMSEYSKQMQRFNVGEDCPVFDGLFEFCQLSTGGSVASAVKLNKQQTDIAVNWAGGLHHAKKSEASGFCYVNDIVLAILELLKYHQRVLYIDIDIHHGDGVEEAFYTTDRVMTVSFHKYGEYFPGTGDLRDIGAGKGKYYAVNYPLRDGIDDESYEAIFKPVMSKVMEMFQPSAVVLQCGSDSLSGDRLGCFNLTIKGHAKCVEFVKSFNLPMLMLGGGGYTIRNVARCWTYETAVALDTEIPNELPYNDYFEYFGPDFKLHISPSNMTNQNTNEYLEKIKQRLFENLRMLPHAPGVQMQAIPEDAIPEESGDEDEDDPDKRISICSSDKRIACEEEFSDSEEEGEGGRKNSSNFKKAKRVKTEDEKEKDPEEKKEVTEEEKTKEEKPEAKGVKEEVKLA

Usually Ki stands for the dissociation constant of the complex between target and ligand, obtained from inhibition or displacement. A high value points to a looser hold on the target. At HDAC1, `C/C=C1\NC(=O)[C@H]2CSSCC/C=C/[C@H](CC(=O)N[C@H](C(C)C)C(=O)N2)OC(=O)[C@H](C(C)C)NC1=O` [FK228] gave a Ki of 0.12 nM.

For `CCCCCCCC(=O)SCC/C=C/[C@@H]1CC(=O)NCc2nc(cs2)C2=N[C@@](C)(CS2)C(=O)N[C@@H](C(C)C)C(=O)O1` [largazole (1), largazole], in test [1], the differential growth inhibition entry is reported as “two- to ten-fold”.

These data come from publication PMC3090445 (Journal of the American Chemical Society, 2008).
